Columns and labels:
[1] = target: T1, Bacillus stearothermophilus NAD-dependent L-lactate dehydrogenase, wild type (WT) (Geobacillus stearothermophilus, UniProt P00344); experiment: biochemical; conditions: pH 6, read-out: stimulation in kcat/Km by FBP
T1 construct: made in house; host or cells: E. coli
Experimental: (§1) Steady-state reaction rates were determined by following the change in A340 due to the consumption of NADH. […] The buffer for all experiments was 100rmM triethanolamine-HC1/NaOH,pH 6.

[2] = target: T2, Bacillus stearothermophilus L-lactate dehydrogenase variant GG (235-6 AA→GG) (Geobacillus stearothermophilus, UniProt P00344, A222G/A223G); experiment: biochemical; conditions: pH 6, read-out: stimulation in kcat/Km by FBP
T2 sequence (P00344 whole entry A222G/A223G, the tested form may be a part): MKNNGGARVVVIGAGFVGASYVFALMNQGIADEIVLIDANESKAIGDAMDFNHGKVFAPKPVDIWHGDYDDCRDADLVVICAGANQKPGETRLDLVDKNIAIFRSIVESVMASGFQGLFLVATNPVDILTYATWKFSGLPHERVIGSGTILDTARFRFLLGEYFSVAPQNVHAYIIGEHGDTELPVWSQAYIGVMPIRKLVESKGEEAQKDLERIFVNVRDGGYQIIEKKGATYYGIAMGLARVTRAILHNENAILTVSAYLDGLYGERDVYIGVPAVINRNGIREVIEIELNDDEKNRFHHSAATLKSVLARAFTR
Experimental: as §1

[3] = target: T3, Bacillus stearothermophilus L-lactate dehydrogenase variant MVS/GG (102-5 QKP→MVS and 235-6 AA→GG) (Geobacillus stearothermophilus, UniProt P00344, A222G/A223G/K87V/P88S/Q86M); experiment: biochemical
T3 construct: made in house; host or cells: E. coli TG2, vector pKK223-3
T3 sequence (P00344 whole entry Q86M/K87V/P88S/A222G/A223G, the tested form may be a part): as the sequence (P00344 whole entry A222G/A223G, the tested form may be a part) above, with Q86M, K87V, P88S counted along it
Experimental: as §1

[4] = target: T4, Bacillus stearothermophilus L-lactate dehydrogenase variant MVS (102-5 QKP→MVS) (Geobacillus stearothermophilus, UniProt P00344, K87V/P88S/Q86M); experiment: biochemical; conditions: pH 6, read-out: stimulation in kcat/Km by FBP
T4 construct: made in house; host or cells: E. coli TG2, vector pKK223-3
T4 sequence (P00344 whole entry Q86M/K87V/P88S): as the sequence (P00344 whole entry A222G/A223G, the tested form may be a part) above, with Q86M, K87V, P88S, G222A, G223A counted along it
Experimental: as §1

[5] = target: T2, Bacillus stearothermophilus L-lactate dehydrogenase variant GG (235-6 AA→GG); conditions: No FBP, pH 6
Experimental: as §1

T1 sequence (P00344 whole entry): as the sequence (P00344 whole entry A222G/A223G, the tested form may be a part) above, with G222A, G223A counted along it

O=C(COP(=O)(O)O)[C@@H](O)[C@H](O)[C@H](O)COP(=O)(O)O [FBP, fructose-1,6-bisphosphate]
fold induction at 5000 µM [1]: 50 | fold induction at 5000 µM [2]: 60 | fold induction at 5000 µM ([3]; pH 6, read-out: stimulation in kcat/Km by FBP): 16 | fold induction at 5000 µM [4]: 100

CC(=O)C(=O)O [Pyruvate]
Km ([3]; MVS/GG, No FBP, pH 6): > 50 mM | Km [5]: > 50 mM

Source: patent US5354676A, “Recombinant modified thermostable NAD-dependent dehydrogenases and process for their production” (The University of Bristol, priority 1989, dated 1994)
